# Molecular target: T1, human orexin type 2 receptor (hOX2R) (Homo sapiens, UniProt O43614)
# T1 construct: expressed in transfected cells
# T1 sequence (O43614 1-444): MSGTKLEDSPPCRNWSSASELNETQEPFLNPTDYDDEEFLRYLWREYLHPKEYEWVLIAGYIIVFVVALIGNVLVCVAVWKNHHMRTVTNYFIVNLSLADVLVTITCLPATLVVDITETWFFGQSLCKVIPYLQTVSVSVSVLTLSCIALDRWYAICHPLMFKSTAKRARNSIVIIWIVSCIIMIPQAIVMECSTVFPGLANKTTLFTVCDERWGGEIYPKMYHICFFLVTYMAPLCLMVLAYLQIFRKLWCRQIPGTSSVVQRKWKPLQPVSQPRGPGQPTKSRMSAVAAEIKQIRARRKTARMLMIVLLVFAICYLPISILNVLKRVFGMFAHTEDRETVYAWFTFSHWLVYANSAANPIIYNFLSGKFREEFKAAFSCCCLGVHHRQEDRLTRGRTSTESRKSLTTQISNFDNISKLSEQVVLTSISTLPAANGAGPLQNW
# Experiment: Measurement of orexin type 2 receptor agonist activity (FLIPR calcium fluorescence)
# Assay type: cell-based
# Details: CHO cells expressing hOX2R, FLIPR calcium fluorescence; for EC50: read-out: hOx2 pEC50 (converted); for Emax: CHO, read-out: hOx2 Emax (%)
# Summary of the method: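 Agonism was read as fluorescence in cells stably expressing human OX2R. E. is the response at 10 μM relative to orexin A as full agonist (100%).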
EC50,Emax,hOx2 Emax (%),Compound
10 to 100 nM,80 to 90%,–,"CC(F)(F)C(=O)N1CC2(CC2)C(NS(C)(=O)=O)C1Cc1cccc(-c2cccc(F)c2)c1F (racemic) [Compound 24, N-(6-((2,3′-difluoro-[1,1′-biphenyl]-3-yl)methyl)-5-(2,2-difluoropropanoyl)-5-azaspiro[2.4]heptan-7-yl)methanesulfonamide]"
10 to 100 nM,90 to 100%,–,"CS(=O)(=O)N[C@@H]1[C@H](Cc2cccc(-c3ccccc3F)c2)N(C(=O)[C@H]2CCO2)CC12CC2 [Compound 40, N-((6S,7S)-6-((2′-fluoro-[1,1′-biphenyl]-3-yl)methyl)-5-((R)-oxetane-2-carbonyl)-5-azaspiro[2.4]heptan-7-yl)methanesulfonamide]"
1 to 10 nM,90 to 100%,–,"CC(C)C(=O)N1CC2(CC2)C(NS(=O)(=O)CF)C1Cc1cccc(-c2ccccc2)c1 (racemic) [Compound 36, N-(6-([1,1′-biphenyl]-3-ylmethyl)-5-isobutyryl-5-azaspiro[2.4]heptan-7-yl)-1-fluoromethanesulfonamide]"
1 to 10 nM,90 to 100%,–,"CC[C@](C)(O)C(=O)N1CC2(CC2)[C@H](NS(=O)(=O)CF)[C@@H]1Cc1cccc(-c2cccc(F)c2)c1F [Compound 376, N-((6S,7S)-6-((2,3′-difluoro-[1,1′-biphenyl]-3-yl)methyl)-5-((S)-2-hydroxy-2-methylbutanoyl)-5-azaspiro[2.4]heptan-7-yl)-1-fluoromethanesulfonamide]"
1 to 10 nM,90 to 100%,–,"O=C([C@H]1CCO1)N1CC2(CC2)[C@H](NS(=O)(=O)CF)[C@@H]1Cc1cccc(-c2cc(F)ccc2F)c1F [Compound 169, 1-fluoro-N-((6S,7S)-5-((R)-oxetane-2-carbonyl)-6-((2,2′,5′-trifluoro-[1,1′-biphenyl]-3-yl)methyl)-5-azaspiro[2.4]heptan-7-yl)methanesulfonamide]"
1 to 10 nM,90 to 100%,–,CCS(=O)(=O)N[C@@H]1[C@H](Cc2cccc(-c3ccccc3)c2F)N(C(=O)[C@H](O)CF)CC12CC2 [Compound 178]
1 to 10 nM,90 to 100%,–,"CC[C@@](C)(O)C(=O)N1CC2(CC2)[C@H](NS(=O)(=O)CF)[C@@H]1Cc1cccc(-c2cccc(F)c2)c1F [Compound 379, N-((6S,7S)-6-((2,3′-difluoro-[1,1′-biphenyl]-3-yl)methyl)-5-((R)-2-hydroxy-2-methylbutanoyl)-5-azaspiro[2.4]heptan-7-yl)-1-fluoromethanesulfonamide]"
1 to 10 nM,90 to 100%,–,"COC[C@@H]1CCN1C(=O)N1CC2(CC2)[C@H](NS(C)(=O)=O)[C@@H]1Cc1cccc(-c2ccccc2)c1F [Compound 102, N-((6S,7S)-6-((2-fluoro-[1,1′-biphenyl]-3-yl)methyl)-5-((S)-2-(methoxymethyl)azetidine-1-carbonyl)-5-azaspiro[2.4]heptan-7-yl)methanesulfonamide]"
1 to 10 nM,90 to 100%,–,"CS(=O)(=O)N[C@@H]1[C@H](Cc2cccc(-c3ccccc3)c2F)N(C(=O)NCC2(F)CC2)CC12CC2 [Compound 104, (6S,7S)-6-((2-fluoro-[1,1′-biphenyl]-3-yl)methyl)-N-((1-fluorocyclopropyl)methyl)-7-(methylsulfonamido)-5-azaspiro[2.4]heptane-5-carboxamide]"
10 to 100 nM,90 to 100%,–,"CC(C)C(=O)N1CC2(CC2)[C@H](NS(C)(=O)=O)[C@@H]1Cc1cccc(-c2ccccc2)c1 [Compound 17, N-((6S,7S)-6-([1,1′-biphenyl]-3-ylmethyl)-5-isobutyryl-5-azaspiro[2.4]heptan-7-yl)methanesulfonamide]"
0.0794 to 1 nM,90 to 100%,–,"CCN(C)C(=O)N1CC2(CC2)[C@H](NS(C)(=O)=O)[C@@H]1Cc1cccc(-c2ccccc2)c1F [Compound 88, (6S,7S)-N-ethyl-6-((2-fluoro-[1,1′-biphenyl]-3-yl)methyl)-N-methyl-7-(methylsulfonamido)-5-azaspiro[2.4]heptane-5-carboxamide]"
100 to 1000 nM,–,C (Emax ranging between 70 and 80),"CC(F)C(=O)N1CC2(CC2)C(NS(C)(=O)=O)C1Cc1cccc(-c2ccccc2)c1 (single isomer, unassigned) [Compound 2, N-(6-([1,1′-biphenyl]-3-ylmethyl)-5-(2-fluoropropanoyl)-5-azaspiro[2.4]heptan-7-yl)methanesulfonamide]"
1 to 10 nM,90 to 100%,–,N#CC1(C(=O)N2CC3(CC3)[C@H](NS(=O)(=O)C(F)F)[C@@H]2Cc2cccc(-c3ccccc3)c2F)CCC1 [Compound 403]
1 to 10 nM,90 to 100%,–,"CS(=O)(=O)N[C@@H]1[C@H](Cc2cccc(-c3ccccc3F)c2F)N(C(=O)[C@H]2CCO2)CC12CC2 [Compound 107, N-((6S,7S)-6-((2,2′-difluoro-[1,1′-biphenyl]-3-yl)methyl)-5-((R)-oxetane-2-carbonyl)-5-azaspiro[2.4]heptan-7-yl)methanesulfonamide]"
1 to 10 nM,90 to 100%,–,"C[C@H](CF)NC(=O)N1CC2(CC2)[C@H](NS(=O)(=O)C(F)F)[C@@H]1Cc1cc(F)cc(-c2ccccc2)c1F [Compound 388, (6S,7S)-6-((2,5-difluoro-[1,1′-biphenyl]-3-yl)methyl)-7-((difluoromethyl)sulfonamido)-N-((R)-1-fluoropropan-2-yl)-5-azaspiro[2.4]heptane-5-carboxamide]"
1 to 10 nM,90 to 100%,–,"COC1(C(=O)N2CC3(CC3)[C@H](NS(=O)(=O)CF)[C@@H]2Cc2cccc(-c3ccccc3)c2F)CC1 [Compound 180, 1-fluoro-N-((6S,7S)-6-((2-fluoro-[1,1′-biphenyl]-3-yl)methyl)-5-(1-methoxycyclopropane-1-carbonyl)-5-azaspiro[2.4]heptan-7-yl)methanesulfonamide]"
100 to 1000 nM,90 to 100%,–,"CS(=O)(=O)N[C@H]1[C@@H](Cc2cccc(-c3ccccc3)c2F)N(C(=O)[C@H]2CCO2)CC12CC2 [Compound 22, N-((6R,7R)-6-((2-fluoro-[1,1′-biphenyl]-3-yl)methyl)-5-((R)-oxetane-2-carbonyl)-5-azaspiro[2.4]heptan-7-yl)methanesulfonamide]"
1 to 10 nM,90 to 100%,–,"CN(C)S(=O)(=O)N[C@@H]1[C@H](Cc2cccc(-c3ccccc3)c2)N(C(=O)[C@H]2CCO2)CC12CC2 [Compound 95, N-((6S,7S)-6-([1,1′-biphenyl]-3-ylmethyl)-5-((R)-oxetane-2-carbonyl)-5-azaspiro[2.4]heptan-7-yl)-N,N-dimethylsulfuric diamide]"
10 to 100 nM,90 to 100%,–,"COCCNC(=O)N1CC2(CC2)[C@H](NS(=O)(=O)CF)[C@@H]1Cc1cccc(-c2ccccc2)c1F [Compound 357, (6S,7S)-6-((2-fluoro-[1,1′-biphenyl]-3-yl)methyl)-7-((fluoromethyl)sulfonamido)-N-(2-methoxyethyl)-5-azaspiro[2.4]heptane-5-carboxamide]"
1 to 10 nM,90 to 100%,–,"CS(=O)(=O)N[C@@H]1[C@H](Cc2cccc(-c3ccccc3)c2F)N(C(=O)NCCF)CC12CC2 [Compound 86, (6S,7S)-6-((2-fluoro-[1,1′-biphenyl]-3-yl)methyl)-N-(2-fluoroethyl)-7-(methylsulfonamido)-5-azaspiro[2.4]heptane-5-carboxamide]"
100 to 1000 nM,90 to 100%,–,"CS(=O)(=O)NC1C(Cc2cccc(-c3ccccc3)c2)N(C(=O)C(F)F)CC12CC2 (racemic) [Compound 5, N-(6-([1,1′-biphenyl]-3-ylmethyl)-5-(2,2-difluoroacetyl)-5-azaspiro[2.4]heptan-7-yl)methanesulfonamide]"
10 to 100 nM,90 to 100%,–,"CS(=O)(=O)NC1C(Cc2cccc(-c3ccccc3)c2)N(C(=O)N2CC(F)C2)CC12CC2 (racemic) [Compound 11, N-(6-([1,1′-biphenyl]-3-ylmethyl)-5-(3-fluoroazetidine-1-carbonyl)-5-azaspiro[2.4]heptan-7-yl)methanesulfonamide]"
10 to 100 nM,90 to 100%,–,"O=C([C@H]1CCO1)N1CC2(CC2)[C@H](NS(=O)(=O)C2COC2)[C@@H]1Cc1cccc(-c2ccccc2)c1 [Compound 77, N-((6S,7S)-6-([1,1′-biphenyl]-3-ylmethyl)-5-((R)-oxetane-2-carbonyl)-5-azaspiro[2.4]heptan-7-yl)oxetane-3-sulfonamide]"
0.0794 to 1 nM,90 to 100%,–,CC(C)NC(=O)N1CC2(CC2)[C@H](NS(C)(=O)=O)[C@@H]1Cc1cccc(-c2ccccc2)c1F [Compound 85]
100 to 1000 nM,80 to 90%,–,"CS(=O)(=O)NC1C(Cc2cccc(-c3ccccc3)c2)N(C(=O)C2CC(F)(F)C2)CC12CC2 (racemic) [Compound 12, N-(6-([1,1-biphenyl]-3-ylmethyl)-5-(3,3-difluorocyclobutane-1-carbonyl)-5-azaspiro[2.4]heptan-7-yl)methanesulfonamide]"
1 to 10 nM,90 to 100%,–,"CCS(=O)(=O)N[C@@H]1[C@H](Cc2cccc(-c3ccccc3)c2F)N(C(=O)[C@H]2CCO2)CC12CC2 [Compound 53, N-((6S,7S)-6-((2-fluoro-[1,1′-biphenyl]-3-yl)methyl)-5-((R)-oxetane-2-carbonyl)-5-azaspiro[2.4]heptan-7-yl)ethanesulfonamide]"

# Reference: patent US12503475B2 (Centessa Pharmaceuticals (UK) Limited, priority 2020, dated 2025)
